The source of these data is patent US20180186742A1, “PICOLINAMIDES AS FUNGICIDES” (Dow AgroSciences LLC, priority 2017, published 2018).

Like-named read-outs stand apart in the source and are kept apart here.

Holding throughout (type): in vivo
Assay [1] has as its system Parastagonospora nodorum. The assay is described as follows: Wheat glume blotch (LEPTNO), disease control on wheat seedlings. The note with it: 1DP test at 100 ppm, read-out: LEPTNO disease control rating. The protocol: Technical grades of materials were dissolved in acetone, which were then mixed with nine volumes of water containing 110 ppm Triton X-100. The fungicide solutions were applied onto wheat seedlings using an automated booth sprayer to run-off. All sprayed plants were allowed to air dry prior to further handling. All fungicides were evaluated using the aforementioned method for their activity vs. all target diseases, unless stated otherwise. Wheat leaf blotch and brown rust activity were also evaluated using track spray applications, in which case the fungicides were formulated as EC formulations, containing 0.1% Trycol 5941 in the spray solutions. Wheat plants (variety Yuma) were grown from seed in a greenhouse in 50% mineral soil/50% soil-less Metro mix until the first leaf was fully emerged, with 7-10 seedlings per pot. These plants were inoculated with an aqueous spore suspension of Parastagonospora nodorum 24 hr after fungicide treatments. After inoculation the plants were kept in 100% relative humidity (one day in a dark dew chamber followed by two days in a lighted dew chamber at 20° C.) to permit spores to germinate and infect the leaf. The plants were then transferred to a greenhouse set at 20° C. for disease to develop. Fungicide formulation, application and disease assessment followed the procedures as described in the Example A.

Assay [2] concerns Uncinula necator. The assay is described as follows: Grape powdery mildew (UNCINE), disease control on grape seedlings. Particulars: Erysiphe necator, 24 h, 1DP (1 Day Protectant) test at 100 ppm. The protocol: Technical grades of materials were dissolved in acetone, which were then mixed with nine volumes of water containing 110 ppm Triton X-100. The fungicide solutions were applied onto wheat seedlings using an automated booth sprayer to run-off. All sprayed plants were allowed to air dry prior to further handling. All fungicides were evaluated using the aforementioned method for their activity vs. all target diseases, unless stated otherwise. Wheat leaf blotch and brown rust activity were also evaluated using track spray applications, in which case the fungicides were formulated as EC formulations, containing 0.1% Trycol 5941 in the spray solutions. Grape seedlings (variety Carignane) were grown in soil-less Metro mix, with one plant per pot, and used in the test when approximately 1 month old. Plants were inoculated 24 hr after fungicide treatment by shaking spores from infected leaves over test plants. Plants were maintained in a greenhouse set at 20° C. until disease was fully developed. Fungicide formulation, application and disease assessment on sprayed leaves followed the procedures as described in the Example A.

Assay [3] relates to Glomerella lagenarium; Anamorph: Colletotrichum lagenarium. In words: Cucumber anthracnose (COLLLA), disease control on cucumber seedlings. Particulars: Colletotrichum orbiculare, 1DP test at 100 ppm, read-out: COLLLA disease control rating. The protocol: Technical grades of materials were dissolved in acetone, which were then mixed with nine volumes of water containing 110 ppm Triton X-100. The fungicide solutions were applied onto wheat seedlings using an automated booth sprayer to run-off. All sprayed plants were allowed to air dry prior to further handling. All fungicides were evaluated using the aforementioned method for their activity vs. all target diseases, unless stated otherwise. Wheat leaf blotch and brown rust activity were also evaluated using track spray applications, in which case the fungicides were formulated as EC formulations, containing 0.1% Trycol 5941 in the spray solutions. Cucumber seedlings (variety Bush Pickle) were propagated in soil-less Metro mix, with each pot having one plant, and used in the test when 12 to 14 days old. Test plants were inoculated with an aqueous spore suspension of Colletotrichum lagenarium 24 hr after fungicide treatments. After inoculation the plants were kept in a dew room at 22° C. with 100% relative humidity for 48 hr to permit spores to germinate and infect the leaf. The plants were then transferred to a growth room set at 22° C. for disease to develop. Fungicide formulation, application and disease assessment on the sprayed leaves followed the procedures as described in the Example A.

For assay [4], the system named is Pseudoperonospora cubensis. The assay is described as follows: Cucumber downy mildew (PSPECU), disease control on cucumber seedlings. Particulars: 24 h, 1DP (1 Day Protectant) test at 100 ppm. The protocol:
Technical grades of materials were dissolved in acetone, which were then mixed with nine volumes of water containing 110 ppm Triton X-100. The fungicide solutions were applied onto wheat seedlings using an automated booth sprayer to run-off. All sprayed plants were allowed to air dry prior to further handling. All fungicides were evaluated using the aforementioned method for their activity vs. all target diseases, unless stated otherwise. Wheat leaf blotch and brown rust activity were also evaluated using track spray applications, in which case the fungicides were formulated as EC formulations, containing 0.1% Trycol 5941 in the spray solutions. Cucumber seedlings (variety Bush Pickle) were grown in soil-less Metro mix, with one plant per pot, and used in the test when 12 to 14 days old. Plants were inoculated with a spore suspension 24 hr following fungicide treatments. Test plants were inoculated with an aqueous spore suspension of Pseudoperonospora cubensis 24 hr after fungicide treatments. After inoculation the plants were kept in a dew room at 22° C. with 100% relative humidity for 24 hr to permit spores to germinate and infect the leaf. The plants were then transferred to a greenhouse set at 20° C. until disease was fully expressed. Fungicide formulation, application and disease assessment on the sprayed leaves followed the procedures as described in the Example A.

Assay [5] deals with Phakopsora pachyrhizi. The assay is described as follows: Asian soybean rust (PHAKPA), disease control on soybean seedlings. The note with it: High volume application at 25 ppm. The procedure, abridged:
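Two-week-old Williams 82 soybean seedlings were sprayed to run-off with compound in acetone/water (1:9) containing 0.011% Tween 20. Inoculation was 3 days before (curative) or 1 day after (protectant) treatment, followed by 24 h dark dew at 22 °C, 100% RH, then 23 °C; disease severity scored on sprayed leaves.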

Assay [6] deals with Magnaporthe grisea; Anamorph: Pyricularia oryzae. The assay is described as follows: whole plant or invertebrate. The note with it: 24 h, read-out: PYRIOR Disease Control.
In assay [7] the test system is Rhyncosporium secalis. The assay is described as follows: Barley scald (RHYNSE), disease control on barley seedlings. The note with it: Hordeum vulgare, 24 h, 1DP (1 Day Protectant) test at 100 ppm. The protocol:
Technical grades of materials were dissolved in acetone, which were then mixed with nine volumes of water containing 110 ppm Triton X-100. The fungicide solutions were applied onto wheat seedlings using an automated booth sprayer to run-off. All sprayed plants were allowed to air dry prior to further handling. All fungicides were evaluated using the aforementioned method for their activity vs. all target diseases, unless stated otherwise. Wheat leaf blotch and brown rust activity were also evaluated using track spray applications, in which case the fungicides were formulated as EC formulations, containing 0.1% Trycol 5941 in the spray solutions. Barley seedlings (variety Harrington) were propagated in soil-less Metro mix, with each pot having 8 to 12 plants, and used in the test when first leaf was fully emerged. Test plants were inoculated by an aqueous spore suspension of Rhyncosporium secalis 24 hr after fungicide treatments. After inoculation the plants were kept in a dew room at 20° C. with 100% relative humidity for 48 hr. The plants were then transferred to a greenhouse set at 20° C. for disease to develop. Fungicide formulation, application and disease assessment on the sprayed leaves followed the procedures as described in the Example A.

Setting [8] is: 24 h, 1 Day Protectant, read-out: PHAKPA 1DP disease control rating.
Where [9] appears, read: 72 h, 3 Day Curative, read-out: PHAKPA 3DC disease control rating.

Regarding `COc1ccnc(C(=O)N[C@@H](C)C(=O)O[C@@H](C)[C@H](c2ccc(F)cc2C)C(C)C)c1OC(C)=O` [Compound 186], the pest or weed control at 100 ppm in assay [1] is above 80%; in assay [2] it was above 80%; in assay [3], below 0%; in assay [4] it was below 80%; in assay [6], above 80%; in assay [7], below 80%. Besides, the pest or weed control at 25 ppm in assay [5] (setting [8]) and in assay [5] (setting [9]) was above 80% each time.

As to `CCC(CC)[C@@H](c1ccc(F)cc1C)[C@H](C)OC(=O)[C@H](C)NC(=O)c1nccc(OC)c1OC(C)=O` [Compound 187], the pest or weed control at 100 ppm in assay [1] is below 80%; in assay [2], above 80%; in assay [3], above 80%; in assay [4], below 0%; in assay [6], above 80%; in assay [7], above 80%. Also, the pest or weed control at 25 ppm is above 80% in assay [5] (setting [8]) and below 80% in assay [5] (setting [9]).

As to `COc1ccnc(C(=O)N[C@@H](C)C(=O)O[C@@H](C)[C@H](c2ccc(F)cc2C)C(C)C)c1OC(=O)C(C)C` [Compound 216], the pest or weed control at 100 ppm in assay [1] was above 80%; in assay [2], above 80%; in assay [3], below 80%; in assay [4], below 80%; in assay [6] it was above 80%; in assay [7], below 80%. The pest or weed control at 25 ppm in assay [5] (setting [8]) and in assay [5] (setting [9]) was above 80% each time.

For the compound `COc1ccnc2c(=O)n([C@@H](C)C(=O)O[C@@H](C)[C@H](c3ccc(F)cc3C)C(C)C)c(=O)oc12` [Compound 217], the pest or weed control at 100 ppm was above 80% in assay [1]; above 80% in assay [2]; below 0% in assay [3]; below 0% in assay [4]; above 80% in assay [6]; below 80% in assay [7]. The pest or weed control at 25 ppm in assay [5] (setting [8]) and in assay [5] (setting [9]) was above 80% in each case.

For `COc1cc[n+]([O-])c(C(=O)N[C@@H](C)C(=O)O[C@@H](C)[C@H](c2ccc(F)cc2C)C(C)C)c1O` [Compound 218], the pest or weed control at 100 ppm in assay [1] is above 80%; in assay [2] it was above 80%; in assay [3], below 80%; in assay [4], below 0%; in assay [6] it was above 80%; in assay [7], below 80%. The pest or weed control at 25 ppm in assay [5] (setting [8]) and in assay [5] (setting [9]) was below 80% each time.

Turning to `COc1ccnc(C(=S)N[C@@H](C)C(=O)O[C@@H](C)[C@H](c2ccc(F)cc2C)C(C)C)c1OC(C)=O` [Compound 219], the pest or weed control at 100 ppm in assay [1] is above 80%; in assay [2], above 80%; in assay [3], below 80%; in assay [4], below 80%; in assay [6], above 80%; in assay [7], below 80%. For the same compound, the pest or weed control at 25 ppm in assay [5] (setting [8]) and in assay [5] (setting [9]) was above 80% throughout.

For `COCCC(=O)Oc1c(OC)ccnc1C(=O)N[C@@H](C)C(=O)O[C@@H](C)[C@H](c1ccc(F)cc1C)C(C)C` [Compound 220], the pest or weed control at 100 ppm in assay [1] is above 80%; in assay [2], above 80%; in assay [3] it was below 80%; in assay [4] it was below 0%; in assay [6], above 80%; in assay [7], below 80%. For the same compound, the pest or weed control at 25 ppm in assay [5] (setting [8]) and in assay [5] (setting [9]) was above 80% in each case.

On to `COc1ccnc(C(=O)N[C@@H](C)C(=O)O[C@@H](C)[C@H](c2ccc(F)cc2C)C(C)C)c1OC(=O)C1CCCC1` [Compound 354], for which the pest or weed control at 100 ppm in assay [1] was above 80%; in assay [2], above 80%; in assay [3] it was above 80%; in assay [4] it was above 80%; in assay [6], below 80%; in assay [7] it was below 80%. The pest or weed control at 25 ppm in assay [5] (setting [8]) and in assay [5] (setting [9]) was above 80% each time.

Take `CCC(C)C(=O)Oc1c(OC)ccnc1C(=O)N[C@@H](C)C(=O)O[C@@H](C)[C@H](c1ccc(F)cc1C)C(C)C` (some centres unmarked) [Compound 355]: the pest or weed control at 100 ppm in assay [1] was above 80%; in assay [2], above 80%; in assay [3], above 80%; in assay [4], below 80%; in assay [6], below 80%; in assay [7], below 80%. Moreover, the pest or weed control at 25 ppm in assay [5] (setting [8]) and in assay [5] (setting [9]) was above 80% throughout.

For the compound `COc1ccnc(C(=O)N[C@@H](C)C(=O)O[C@@H](C)[C@H](c2ccc(F)cc2C)C(C)C)c1OC(=O)CC(C)C` [Compound 356], the pest or weed control at 100 ppm was above 80% in assay [1]; above 80% in assay [2]; below 80% in assay [3]; below 80% in assay [4]; below 80% in assay [6]; below 80% in assay [7]. The pest or weed control at 25 ppm in assay [5] (setting [8]) and in assay [5] (setting [9]) was above 80% in each case.
